Measurements taken from ChEMBL document CHEMBL5120928, “A New Chemotype of Chemically Tractable Nonsteroidal Estrogens Based on a Thieno[2,3-d]pyrimidine Core” (ACS Med Chem Lett, 2022).

What was measured:
[1] = target: T1, Estrogen receptor (Homo sapiens, UniProt P03372)
T1 sequence (P03372 whole entry): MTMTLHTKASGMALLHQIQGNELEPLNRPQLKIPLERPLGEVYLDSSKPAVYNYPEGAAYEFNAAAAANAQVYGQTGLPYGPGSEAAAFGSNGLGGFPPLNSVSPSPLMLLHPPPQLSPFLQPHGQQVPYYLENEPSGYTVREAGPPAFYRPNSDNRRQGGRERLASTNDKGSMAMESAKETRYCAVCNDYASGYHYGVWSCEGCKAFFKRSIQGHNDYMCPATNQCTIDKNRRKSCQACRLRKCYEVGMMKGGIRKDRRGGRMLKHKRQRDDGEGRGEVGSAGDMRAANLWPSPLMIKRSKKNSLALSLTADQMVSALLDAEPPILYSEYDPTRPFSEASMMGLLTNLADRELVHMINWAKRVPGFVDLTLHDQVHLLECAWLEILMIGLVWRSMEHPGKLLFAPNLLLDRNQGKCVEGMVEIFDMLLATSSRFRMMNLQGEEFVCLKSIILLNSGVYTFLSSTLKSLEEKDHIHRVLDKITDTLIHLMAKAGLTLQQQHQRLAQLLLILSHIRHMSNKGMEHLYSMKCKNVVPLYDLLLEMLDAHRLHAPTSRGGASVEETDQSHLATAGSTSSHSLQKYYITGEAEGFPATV

[2] = target: T1, Estrogen receptor; remark: listed apart in the source
Description: Agonist activity at RST7-ERalpha (unknown origin) co-expressed with (ERE)TK-luciferase reporter plasmid transfected in human HepG2 cells incubated for 24 hrs by Renilla luciferase based reporter assay

Oc1ccc(CNc2nc(Cl)nc3scc(-c4ccccc4)c23)cc1O
EC50 [1]: > 10 µM
EC50 [2]: > 10 µM
